pIC50: −log10 of the molar value.
Key:
[1] = test system: carrageenan foot edema (rat paw); assay: Rat Carrageenan Foot Pad Edema Test; format: in vivo, Male Sprague-Dawley rats; settings: @ 30 mg/kg body weight; oral; 3 hours after carrageenan
Procedure: Rat Carrageenan Foot Pad Edema Test
Male Sprague-Dawley rats were selected in each group so that the average body weight was as close as possible. Rats were fasted with free access to water for over sixteen hours prior to the test. […] One hour later a subplantar injection of 0.1 mL of 1% solution of carrageenan/sterile 0.9% saline was administered and the volume of the injected foot was measured with a displacement plethysmometer connected to a pressure transducer with a digital indicator. Three hours after the injection of the carrageenan, the volume of the foot was again measured.

[2] = test system: hyperalgesic foot withdrawal (rat carrageenan); assay: Rat Carrageenan-induced Analgesia Test; format: in vivo, Male Sprague-Dawley rats; settings: @ 30 mg/kg body weight; oral; 3 hours after carrageenan
Procedure: Rat Carrageenan-induced Analgesia Test
Male Sprague-Dawley rats were treated as previously described for the Carrageenan Foot Pad Edema test. Three hours after the injection of the carrageenan, the rats were placed in a special plexiglass container with a transparent floor having a high intensity lamp as a radiant heat source, positionable under the floor. After an initial twenty minute period, thermal stimulation was begun on either the injected foot or on the contralateral uninjected foot. A photoelectric cell turned off the lamp and timer when light was interrupted by paw withdrawal. The time until the rat withdraws its foot was then measured. The withdrawal latency in seconds was determined for the control and drug-treated groups, and percent inhibition of the hyperalgesic foot withdrawal determined.

Human COX-1 = molecular target: T1, Human COX-1 (Homo sapiens, UniProt P23219); assay: Evaluation of COX-1 activity in vitro (recombinant enzyme, PGE2 ELISA); format: biochemical; settings: 10 μM arachidonic acid; 10-20 minutes pre-incubation; pH 8.0
T1 construct: A 2.0 kb fragment containing the coding region of either human or murine COX-1 or human or murine COX-2; made in house; host or cells: SF9 insect cells (recombinant baculovirus, pVL1393); CHAPS-solubilized membranes
From the text: Evaluation of COX-1 and COX-2 activity in vitro
(§1) a. Preparation of recombinant COX baculoviruses
(§2) A 2.0 kb fragment containing the coding region of either human or murine COX-1 or human or murine COX-2 was cloned into a BamH1 site of the baculovirus transfer vector pVL1393 (Invitrogen) to generate the baculovirus transfer vectors for COX-1 and COx-2 in a manner similar to the method of D. R. O'Reilly et al (Baculovirus Expression Vectors: A Laboratory Manual (1992)). Recombinant baculoviruses were isolated by transfecting 4 μg of baculovirus transfer vector DNA into SF9 insect cells (2>10e8) along with 200 ng of linearized baculovirus plasmid DNA by the calcium phosphate method. See M. D. Summers and G. E. Smith, A Manual of Methods for Baculovirus Vectors and Insect Cell Culture Procedures, Texas Agric. Exp. Station Bull. 1555 (1987). Recombinant viruses were purified by three rounds of plaque purification and high titer (10E7-10E8 pfu/ml) stocks of virus were prepared. For large scale production, SF9 insect cells were infected in 10 liter fermentors (0.5×10^6 /ml) with the recombinant baculovirus stock such that the multiplicity of infection was 0.1. After 72 hours the cells were centrifuged and the cell pellet homogenized in Tris/Sucrose (50 mM: 25%, pH 8.0) containing 1% 3-[(3-cholamidopropyl)dimethylammoniol]-1-propanesulfonate (CHAPS). The homogenate was centrifuged at 10,000×G for 30 minutes, and the resultant supernatant was stored at -80° C. before being assayed for Cox activity.
b. Assay for COX-1 and COX-2 activity:
(§3) COX activity was assayed as PGE2 formed/μg protein/time using an ELISA to detect the prostaglandin released. CHAPS-solubilized insect cell membranes containing the appropriate COX enzyme were incubated in a potassium phosphate buffer (50 mM, pH 8.0) containing epinephrine, phenol, and heme with the addition of arachidonic acid (10 μM). Compounds were pre-incubated with the enzyme for 10-20 minutes prior to the addition of arachidonic acid. Any reaction between the arachidonic acid and the enzyme was stopped after ten minutes at 37° C./room temperature by transferring 40 μl of reaction mix into 160 μl ELISA buffer and 25 μM indomethacin. The PGE2 formed was measured by standard ELISA technology (Cayman Chemical).

Human COX-2 = molecular target: T2, Human COX-2 (Homo sapiens, UniProt P35354); assay: Evaluation of COX-2 activity in vitro (recombinant enzyme, PGE2 ELISA); format: biochemical; settings: 10 μM arachidonic acid; 10-20 minutes pre-incubation; pH 8.0
T2 construct: A 2.0 kb fragment containing the coding region of either human or murine COX-1 or human or murine COX-2; made in house; host or cells: SF9 insect cells (recombinant baculovirus, pVL1393); CHAPS-solubilized membranes
T2 sequence (P35354 18-604): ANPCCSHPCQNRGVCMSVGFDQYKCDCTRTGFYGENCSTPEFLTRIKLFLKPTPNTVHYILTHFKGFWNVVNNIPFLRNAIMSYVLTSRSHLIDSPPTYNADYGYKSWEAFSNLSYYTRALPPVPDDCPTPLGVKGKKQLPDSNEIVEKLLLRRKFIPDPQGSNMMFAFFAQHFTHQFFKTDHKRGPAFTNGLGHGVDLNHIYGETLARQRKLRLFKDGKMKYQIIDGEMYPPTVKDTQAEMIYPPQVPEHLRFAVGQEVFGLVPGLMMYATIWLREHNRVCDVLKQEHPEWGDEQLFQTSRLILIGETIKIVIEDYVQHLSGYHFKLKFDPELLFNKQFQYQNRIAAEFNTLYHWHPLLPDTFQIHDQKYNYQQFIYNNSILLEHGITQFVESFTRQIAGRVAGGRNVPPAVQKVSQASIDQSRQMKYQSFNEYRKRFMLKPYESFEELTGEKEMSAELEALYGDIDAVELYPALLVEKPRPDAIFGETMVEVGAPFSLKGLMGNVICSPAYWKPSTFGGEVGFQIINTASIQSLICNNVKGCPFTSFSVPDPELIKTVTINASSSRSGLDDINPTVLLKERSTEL
Procedure: The COX-2 inhibition activity of the compounds of this invention illustrated in the Examples was determined by the following methods.
as §1, §2, §3

T1 sequence (P23219 24-599): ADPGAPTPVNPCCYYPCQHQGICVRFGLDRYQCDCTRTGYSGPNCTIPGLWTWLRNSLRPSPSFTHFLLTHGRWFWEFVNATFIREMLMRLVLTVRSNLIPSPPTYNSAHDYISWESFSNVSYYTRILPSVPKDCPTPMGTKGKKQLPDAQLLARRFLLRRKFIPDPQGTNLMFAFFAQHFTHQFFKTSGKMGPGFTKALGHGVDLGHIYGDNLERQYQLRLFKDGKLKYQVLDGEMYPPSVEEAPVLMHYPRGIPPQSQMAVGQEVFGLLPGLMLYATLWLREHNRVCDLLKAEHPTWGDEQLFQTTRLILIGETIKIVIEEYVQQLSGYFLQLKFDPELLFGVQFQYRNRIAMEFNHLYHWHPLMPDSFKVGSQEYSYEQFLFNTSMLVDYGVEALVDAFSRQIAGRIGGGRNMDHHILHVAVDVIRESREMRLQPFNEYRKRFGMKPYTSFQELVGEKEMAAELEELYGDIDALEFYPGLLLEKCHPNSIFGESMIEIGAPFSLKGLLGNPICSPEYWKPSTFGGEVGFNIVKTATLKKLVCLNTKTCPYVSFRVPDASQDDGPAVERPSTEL

SMILES	pIC50 (Human COX-1)	pIC50 (Human COX-2)	RAT PAW EDEMA % Inhibition [1] [%]	ANALGESIA % Inhibition [2] [%]
COc1ccc2c(c1F)CSc1c(C(F)(F)F)nn(-c3ccc(S(N)(=O)=O)cc3)c1-2 [Example 1, 4-[6-fluoro-1,5-dihydro-7-methoxy-3-(trifluoromethyl)-[2]benzothiopyrano[4,3-c]pyrazol-1-yl]benzenesulfonamide]	–	–	43	35
NS(=O)(=O)c1ccc(-n2nc(C(F)(F)F)c3c2-c2ccccc2SC3)cc1 [Example 7, 4-[1,4-dihydro-3-(trifluoromethyl)-[1]benzothiopyrano[4,3-c]pyrazol-1-yl]benzenesulfonamide]	5.01	–	–	–
NS(=O)(=O)c1ccc(-n2nc(C(F)(F)F)c3c2-c2cc(Cl)sc2CS3)cc1 [Example 21, 4-[7-chloro-1,5-dihydro-3-trifluoromethylthieno[3',2':4,5]thiopyrano[3,2-c]pyrazol-1-yl]benzenesulfonamide]	–	–	–	14
COc1cc2c(c(OC)c1OC)-c1c(c(C(F)(F)F)nn1-c1ccc(S(N)(=O)=O)cc1)OC2 [Example 27, 4-[1,5-dihydro-7.8,9-trimethoxy-3-(trifluoromethyl)-[2]benzopyrano[4,3-c]pyrazol-1-yl]benzenesulfonamide]	< 4.00	4.22	–	–
Cc1ccc2c(c1)COc1c(C(F)(F)F)nn(-c3ccc(S(N)(=O)=O)cc3)c1-2 [Example 28, 4-[1,5-dihydro-7-methyl-3-(trifluoromethyl)-[2]benzopyrano[4,3-c]pyrazol-1-yl]benzenesulfonamide]	< 4.00	> 7.00	–	–
COc1c(F)cc2c(c1F)CSc1c(C(F)(F)F)nn(-c3ccc(S(N)(=O)=O)cc3)c1-2 [Example 29, 4-[6,8-difluoro-1,5-dihydro-7-methoxy-3-(trifluoromethyl)[2]benzothiopyrano[4,3-c]pyrazol-1-yl]benzenesulfonamide]	< 4.00	6.52	–	–
Cc1ccc2c(c1)COc1c(C(F)F)nn(-c3ccc(S(N)(=O)=O)cc3)c1-2 [Example 30, 4-[3-(difluoromethyl)-1,5-dihydro-7-methyl[2]benzopyrano[4,3-c]pyrazol-1-yl]benzenesulfonamide]	4.97	> 7.00	–	–
CN(C)C=NS(=O)(=O)c1ccc(-n2nc(C#N)c3c2-c2ccc(F)cc2CS3)cc1 [Example 34, 4-(3-cyano-1,5-dihydro-7-fluoro-[2]benzothiopyrano[4,3-c]pyrazol-1-yl) -N-[(dimethylamino)methylene]-benzenesulfonamide]	< 4.00	5.38	–	–

Second part, led by results:

pIC50 (Human COX-1)	pIC50 (Human COX-2)	SMILES	RAT PAW EDEMA % Inhibition [1] [%]	ANALGESIA % Inhibition [2] [%]
5.15	–	NS(=O)(=O)c1ccc(-n2nc(C(F)(F)F)c3c2-c2ccccc2OC3)cc1 [Example 3, 4-[1,4-dihydro-3-(trifluoromethyl)-[1]benzopyrano[4,3-c]pyrazol-1-yl]benzenesulfonamide]	–	–
6.40	–	NS(=O)(=O)c1ccc(-n2nc(C(F)(F)F)c3c2-c2ccccc2CS3)cc1 [Example 16, 4-[1,5-dihydro-3-(trifluoromethyl)-[2]benzothiopyrano[4 3-c]pyrazol-1-yl]benzenesulfonamide]	–	–
5.92	> 7.00	Cc1ccc2c(c1)CSc1c(C(F)F)nn(-c3ccc(S(N)(=O)=O)cc3)c1-2 [Example 24, 4-[3-(difluoromethyl)-1,5-Dihydro-7-methyl-[2]benzothiopyrano[4,3-c]pyrazol-1-yl]benzenesulfonamide]	–	–
5.82	> 7.00	NS(=O)(=O)c1ccc(-n2nc(C(F)F)c3c2-c2ccc(Cl)cc2CS3)cc1 [Example 25, 4-[7-chloro-3-(difluoromethyl)-1,5-dihydro-[2]benzothiopyrano[4,3-c]pyrazol-1-yl]benzenesulfonamide]	–	–
6.70	> 7.00	COc1ccc2c(c1)COc1c(C(F)(F)F)nn(-c3ccc(S(N)(=O)=O)cc3)c1-2 [Example 26, 4-[1,5-dihydro-7-methoxy-3-(trifluoromethyl)-[2]benzopyrano[4,3-c]pyrazol-1-yl]benzenesulfonamide]	–	–
6.70	> 7.00	NS(=O)(=O)c1ccc(-n2nc(C(F)F)c3c2-c2ccc(F)cc2CS3)cc1 [Example 31, 4-[3-(difluoromethyl)-1,5-dihydro-7-fluoro-[2]benzothiopyrano[4,3-c]pyrazol-1-yl]benzenesulfonamide]	–	–
5.05	6.70	CS(=O)(=O)c1ccc(-n2nc(C(F)(F)F)c3c2-c2ccc(F)cc2CS3)cc1 [Example 32, 1,5-dihydro-7-fluoro-1-[(4-methylsulfonyl)phenyl]-3-(trifluoromethyl)-[2]benzothiopyrano[4,3,c]pyrazole]	–	–
> 7.00	> 7.00	NS(=O)(=O)c1ccc(-n2nc(C(F)(F)F)c3c2-c2ccc4c(c2CS3)OCO4)cc1 [Example 33]	–	–
6.10	7.00	N#Cc1nn(-c2ccc(S(N)(=O)=O)cc2)c2c1SCc1cc(F)ccc1-2 [Example 35]	–	–
5.17	5.77	NS(=O)(=O)c1ccc(-n2nc(CO)c3c2-c2ccc(F)cc2CS3)cc1 [Example 36]	–	–

— US5886016A, “Benzopyranopyrazolyl derivatives for the treatment of inflammation” (G.D. Searle & Co., priority 1997, dated 1999)
